How the values were obtained:
[1] = single dose toxicity and pharmacokinetics, rat; type: in vivo, Sprague Dawley rats; conditions: for AUC(0-inf) / Cmax: Sprague Dawley, plasma, single i.v. 50 mg/kg (NOAEL); for AUC∞ Ratio to Phase I / Cmax Ratio to Phase I / Cmax Ratio to Phase II: single i.v. 50 mg/kg; for AUC∞ Ratio to Phase I / Cmax Ratio to Phase I: vs human 150 mg Phase I; for Cmax Ratio to Phase II: vs human 150 mg Phase II
Procedure: (§1) The pharmacokinetics of dexanabinol of high enantiomeric purity formulated in CREMOPHOR EL®:ethanol as described in Example 4 were investigated in rats, rabbits, and monkeys following intravenous administration of single doses, and 14 and 28 days of repeated dosing. Human pharmacokinetics was studied during Phase I and Phase II clinical studies. Dexanabinol used in the pharmacokinetic studies was formulated as drug concentrates of 50 and 100 mg/ml and diluted with sterile 0.9% NaCl solution prior to intravenous (i.v.) administration to the desired final doses. Determination of dexanabinol concentrations in plasma and brain extracts was carried out using a validated Gas Chromatography-Mass Spectra (GC-MS) assay following solid phase extraction of the drug and derivatization. The limit of quantitation of the assay is 0.1 ng/ml.
(§2) Pharmacokinetic parameters were estimated by a non-compartmental method using WinNonlin Professional version 3.2 (Pharsight Corp., Mountain View, Calif.). The maximum plasma concentration (Cmax), when the drug is administered by infusion, is the concentration at the end of infusion. The Cmax following intravenous bolus administration is the value estimated by the software to be the concentration at t=0. The terminal slope (X) was estimated by linear regression through the last time points and used to calculate the terminal half-life (t1/2) from the following equation: t1/2=0.693/λ The area under the curve from time of dosing through the last time point (AUCz) was calculated by the linear trapezoid method. The AUC extrapolated to infinity (AUC∞) was calculated from the following equation: AUC∞=AUCz+Cz/λ where Cz is the concentration at the last time point predicted by the linear regression. AUC∞ was normalized for dose (mg/kg) and presented as AUC∞/Dose. Mean residence time (MRT), when the drug is administered by infusion is described by the following equation: MRT=(AUMC/AUC)−(TI)/2 Mean residence time after i.v. bolus administration is described by the following equation: MRT=(AUMC/AUC) where AUMC is the area under the first moment curve and TI is the length of infusion. Plasma clearance (CL), and the apparent volume of distribution at steady state (Vss) were calculated from the following equations: CL=Dose/AUC∞ Vss=MRT×CL
Table 6 summarizes the maximum plasma concentration (Cmax) and the area under the plasma concentration versus time curve (AUC) observed at the NOAEL doses cited above, as well as the animal to human exposure ratios (ER) for dexanabinol of high enantiomeric purity, expressed as the ratio of the pharmacokinetic (PK) parameter to that observed for a 150 mg dose in a Phase I study in human volunteers and in Phase II study in patients suffering from severe traumatic brain injury (TBI).

[2] = test system: intra-ocular pressure (IOP); assay: IOP lowering after topical administration in normotensive rabbits; type: in vivo, New Zealand White albino rabbits
Procedure: New Zealand White albino rabbits weighing 2-2.5 kg were acclimatized in our animal facility for at least a week prior to IOP measurements. Drug, saline and blank-vehicle groups (n=8-12 animals per group) were included. In most experiments, 50 μl drops were applied at 09:00 and measurements were taken 1 hour, 3, 5, and 7 hours later. Baseline IOP was individualized for each animal and time point prior to drug testing. IOP was measured by a Digilab Pneumatonometer, Model 30R. ΔIOP was calculated by subtracting the baseline IOP from IOP value measured after drug application at a corresponding time point. Maximal ΔIOP and area under the ΔIOP×hours curve (AUC) were calculated and averaged for each group. Data of IOP, AUC, blood pressure and toxicity were analyzed by the Wilcoxon-Rank test.

[3] = 28-day multiple dose study, monkey; type: in vivo, monkeys; conditions: for AUC(0-inf) / Cmax: plasma, 25 mg/kg i.v. daily, final dose Day 28 (NOAEL); for AUC∞ Ratio to Phase I / Cmax Ratio to Phase I / AUC∞ Ratio to Phase II / Cmax Ratio to Phase II: 25 mg/kg Day 28; for AUC∞ Ratio to Phase I / Cmax Ratio to Phase I: vs human 150 mg Phase I; for AUC∞ Ratio to Phase II / Cmax Ratio to Phase II: vs human 150 mg Phase II
Procedure: as §1, §2
In 14-day multiple dose pharmacokinetic studies, the NOAEL was 15 mg/kg/day in rats and 25 mg/kg/day in rabbits. In a 28-day study in monkeys the NOAEL was 25 mg/kg/day. Cmax and AUC observed following the last dose at the NOAEL in the multiple dose toxicity studies and the ratios of these values to those observed in the Phase I and II studies for the 150 mg dose are shown in Table 7.

[4] = test system: inflammatory bowel disease (IBD) model; assay: IBD induced by rectal 5% acetic acid solution; type: in vivo, Sprague Dawley male rats
Procedure: The pharmacological activity of dexanabinol of high enantiomeric purity in enema formulation was also tested and compared to oral and i.p. formulations, wherein oral delivery was performed using a hard gelatin capsule and i.p. delivery was performed using the CREMOPHOR EL®:ethanol formulation. IBD was induced in Sprague Dawley male rats, by rectal administration of a 5% acetic acid solution. The rectum was then washed with saline and animals were clinically observed (body weight, stool consistency and blood in stool) daily for 7 days. On the eighth day, the animals were sacrificed, their colon opened and gross pathology lesions were recorded (hyperemia, edema, number of erosions, ulcers, perforations and adhesions). Animals, at least six per group, were treated rectally (by enema) with either dexanabinol (5, 10, 20 or 40 mg/kg/day) or its vehicle or by oral gavage (20, 40, or 80 mg/kg/day or vehicle). Administration of acetic acid caused a decrease in body weight (up to 20%), changes in stool consistency (diarrhea) and appearance of blood in the stool 24 hours later. Spontaneous clinical healing was detected as animals regained weight and blood was no more evident in the stool. In the gross pathology scale, rectal dexanabinol 10 mg/kg had the best effect (more than 50% reduction of score) compared to its vehicle (p<0.05). […] The rectal dexanabinol dose of 10 mg/kg was pharmacologically equivalent to 20 mg/kg i.p. dose and 80 mg/kg oral dose.

[5] = both sexes, iv, monkey male & female

## CCCCCCC(C)(C)c1cc(O)c2c(c1)OC(C)(C)[C@H]1CC=C(CO)C[C@H]21 [dexanabinol, 1,1-dimethylheptyl-(3S,4S)-7-hydroxy-Δ^6-tetrahydrocannabinol]
[1]; iv, rat female
  AUC(0-inf): 173 µg·h/mL
  Cmax: 38.8 µg/mL
[1]; iv, rat male
  AUC(0-inf): 67.5 µg·h/mL
  Cmax: 102 µg/mL
[1]; Sprague-Dawley, rat, in vivo, iv, single dose i.v., read-out: no observed adverse effect level (NOAEL)
  NOAEL: 50 mg/kg
[1]; rat female
  AUC∞ Ratio to Phase I: 54.0
  Cmax Ratio to Phase I: 7.7
  Cmax Ratio to Phase II: 19.7
[1]; rat male
  AUC∞ Ratio to Phase I: 21.0
  Cmax Ratio to Phase I: 20.4
  Cmax Ratio to Phase II: 51.9
[2]; 0.02% topical
  AUC (ΔIOP×hours): 6.4±2.5 mmHg×Hour
  maximal ΔIOP: 1.8±0.7 mmHg
[2]; 0.05% topical
  AUC (ΔIOP×hours): 5.1±3.7 mmHg×Hour
  maximal ΔIOP: 1.8±0.9 mmHg
[2]; 0.1% topical
  maximal ΔIOP: 2.9±0.4 mmHg
[2]; 0.1% topical, ±SEM
  AUC (ΔIOP×hours): 14.6±2.2 mmHg×Hour
[2]; 0.2% topical
  AUC (ΔIOP×hours): 6.9±1.7 mmHg×Hour
  maximal ΔIOP: 2.2±0.6 mmHg
[2]; all doses 0.02%, 0.05%, 0.1%, 0.2%, masked study
  IOP lowering effect compared to the vehicle and the saline: small, yet statistically significant
[2]; daily application for three days, n=8
  IOP lowering effect over three days: sustained IOP lowering effect
[3]; [5]
  AUC(0-inf): 193 µg·h/mL
  Cmax: 162 µg/mL
[3]; monkey female
  AUC∞ Ratio to Phase I: 55.5
  Cmax Ratio to Phase I: 32.2
  AUC∞ Ratio to Phase II: 120.0
  Cmax Ratio to Phase II: 81.9
[3]; monkey male & female
  AUC∞ Ratio to Phase I: 60.2
  Cmax Ratio to Phase I: 32.4
  AUC∞ Ratio to Phase II: 130.2
  Cmax Ratio to Phase II: 82.5
[3]; monkey male
  AUC∞ Ratio to Phase I: 64.9
  Cmax Ratio to Phase I: 32.6
  AUC∞ Ratio to Phase II: 140.4
  Cmax Ratio to Phase II: 83.0
[3]; monkey, in vivo, iv, 28-day study i.v.
  NOAEL at 28 days: 25 mg/kg/day
[3]; iv, monkey female
  AUC(0-inf): 178 µg·h/mL
  Cmax: 161 µg/mL
[3]; iv, monkey male
  AUC(0-inf): 208 µg·h/mL
  Cmax: 163 µg/mL
[4]; i.p., CREMOPHOR EL:ethanol formulation
  i.p. dose pharmacologically equivalent to rectal dose of 10 mg/kg: 20 mg/kg
[4]; oral
  oral dose pharmacologically equivalent to rectal dose of 10 mg/kg: 80 mg/kg
[4]; rectal 10 mg/kg
  clinical disease severity compared to the vehicle: reduced also the clinical disease severity
[4]; rectal (enema) 10 mg/kg, p<0.05
  reduction of gross pathology score compared to vehicle: more than 50%
